Measured values taken from US7097996B2, “Methods of screening test compounds using GADD34L, an eIF2α-specific phosphatase subunit” (New York University, priority 2002, dated 2006).
Read-outs that look alike come from different tables or passages of the source. d = 2'-deoxy (DNA); r = 2'-OH (RNA)

Assays:
[1] = tested on: CHOP::GFP reporter; assay: CHOP::GFP reporter expression by FACS in CHOP::GFP CHO cells; type: cell-based, Chinese Hamster
[2] = tested on: CHOP protein and phosphorylated eIF2α in CHO cells; type: cell-based, Chinese Hamster
[3] = tested on: HT22 cells; assay: HT22 cell survival (MTT) after toxic glutamate exposure; type: cell-based; conditions: HT22 cells preconditioned (70 μM 22P19 for 24 or 48 h, or siRNA transfection), then 5 mM or 10 mM glutamate for 18 hours
Description: FIG. 6: Inhibition of endogenous GADD34L protects cells against oxidative toxicity. The bar graphs show percent survival of HT22 cells following exposure to toxic amounts of glutamate. HT22 cells were treated with 70 μM 22P19 for 24 or 48 h (top panel), or left untransfected (NTx), mock transfected, transfected with GADD34L siRNA, or transfected with control or CD2 siRNA (bottom panel), and then exposed to the indicated concentrations of glutamate for 18 hours.
In order to determine whether this preconditioning is protective against subsequent cell stress, cell survival rates of HT22 cells following toxic glutamate exposure were measured, where those HT22 cells had been preconditioned by 22P19- or RNAi-mediated inhibition of GADD34L (see FIG. 6).
For this assay, HT22 cells were either treated with 70 μM 22P19 for 24 or 48 h, or transfected with GADD34L siRNA or control CD2 siRNA, and then exposed to 0 mM, 5 mM, or 10 mM glutamate for 18 hours.

[4] = parental CHO cells, 1.75 μg/mL tunicamycin or 50 μM arsenite

tunicamycin
CHOP::GFP reporter expression ([1]; parental CHO cells, 8 hours, 1.75 μg/mL tunicamycin or 50 μM arsenite): substantially activated | CHOP protein level [2, 4]: strong induction of CHOP protein | phosphorylated eIF2α level [2, 4]: increase in phosphorylated eIF2α levels

arsenite
CHOP::GFP reporter expression [1]: substantially activated | CHOP protein level [2]: strong induction of CHOP protein | phosphorylated eIF2α level [2]: increase in phosphorylated eIF2α levels

GADD34L siRNA: complementary double stranded RNA oligonucleotides (SEQ ID NO: 9 and 10) targeting GADD34L mRNA, purchased from Dharmacon (chain 1 GGGAUGGAUGCAGGUUCCATT; chain 2 UGGAACCUGCAUCCAUCCCTT; sugars from the 5' end r19 d2, backbone not given here)
cell survival following glutamate treatment [3]: substantially improved cell survival | CHOP::GFP expression in cells not subject to stress ([1]; CHO CHOP::GFP cells harvested 16, 24 or 44 hours after transfection): activates CHOP::GFP expression
